Literature values as cited in US11504327B1, “Method of preparing nanoparticles by hot-melt extrusion” (priority 2019, dated 2022).

Settings: polyethoxylated oleyl alcohols; Walters et al. 1993

permeation enhancement of ibuprofen across human skin	Substance
worst	oleth-20
most effective permeation enhancer	oleth-2
